# Values quoted from earlier work, collected in article PMC10458307, “New Scaffolds of Proteasome Inhibitors: Boosting Anticancer Potential by Exploiting the Synergy of In Silico and In Vitro Methodologies” (Pharmaceuticals, 2023).
# Peptide text beside a SMILES is read from it. * marks the point of attachment. Cbz = O=C(OCc1ccccc1)*
# System: proteasome C-L active site
# Conditions: literature values; ref 34 (bortezomib), 35 (ixazomib); cited from earlier work
row,SMILES,IC50 [nM]
1,"CC(C)C[C@H](NC(=O)CNC(=O)c1cc(Cl)ccc1Cl)B(O)O [Ixazomib, ixazomib]",31

# System: proteasome T-L activity
# Set-up: method as in PMID 16286248
# Conditions: literature value; cited from earlier work
row,SMILES,IC50 [nM]
1,"C[C@@]12OC(=O)[C@]1([C@@H](O)[C@@H]1C=CCCC1)NC(=O)[C@@H]2CCCl [Marizomib, marizomib]",28

# System: proteasome CT-L active site
# Conditions: literature values of known proteasome inhibitors; reference per compound; cited from earlier work
row,SMILES,IC50 [nM]
1,CC(C)C[C@@H](C=O)NC(=O)[C@H](CC(C)C)NC(=O)[C@H](CC(C)C)NC(=O)OCc1ccccc1 [MG-132] (Cbz-Leu-Leu-Leu-aldehyde),40
2,CC[C@H](C)[C@H](NC(=O)[C@H]([C@@H](C)CC)N(C)C(C)=O)C(=O)N[C@H](C(=O)N[C@@H](CC(C)C)C(=O)[C@@]1(C)CO1)[C@@H](C)O [Epoxomicin],47
3,O=c1c(O)c(-c2ccc(O)c(O)c2)oc2cc(O)cc(O)c12 [Quercetin],3500
4,C/C=C\NC(=O)[C@H]1NC(=O)[C@H](CC(N)=O)NC(=O)[C@@H](NC(=O)C(=O)[C@@H](C)CC)Cc2ccc(O)c(c2)-c2cccc3c2NC(=O)[C@@]3(O)[C@@H]1O [TMC-95A],5.4
5,COc1cc(-c2[o+]c3cc(O)cc(O)c3cc2O)cc(OC)c1O [Malvidin],32000
6,O=c1c(O)c(-c2ccc(O)cc2)oc2cc(O)cc(O)c12 [Kaempferol],10500
7,O=c1cc(-c2ccc(O)cc2)oc2cc(O)cc(O)c12 [Apigenin],1800
8,Oc1cc(O)c2cc(O)c(-c3cc(O)c(O)c(O)c3)[o+]c2c1 [Delphinidin],32400
9,CCCCCCCCC[C@@H](O)CC(=O)N[C@@H](CC(N)=O)C(=O)N[C@@H](CCC(N)=O)C(=O)N[C@H](C=O)CC(C)C [Fellutamide B],9.4
10,Oc1cc(O)c2cc(O)c(-c3ccc(O)c(O)c3)[o+]c2c1 [Cyanidin],18400
